Assay results from US9200051B2, “Peptide compound” (TAKEDA PHARMACEUTICAL COMPANY LIMITED, priority 2013, dated 2015).
Where two headings read alike, the source gives them in different places. Square brackets hold non-standard residues; d marks the D form. Peptide text beside a SMILES is read from it. * marks the point of attachment. αMeY = C[C@](N)(Cc1ccc(O)cc1)C(=O)O; Cyclopropanecarbonyl = O=C(C1CC1)*; αMeF = C[C@](N)(Cc1ccccc1)C(=O)O; Aib = CC(C)(N)C(=O)O

What was measured:
Type in all cases: cell-based
human GLP-1R = molecular target: T1, human GLP-1R (Homo sapiens, UniProt P43220); assay: Agonist activity against human GLP-1R, CRE-luciferase reporter assay in hGLP-1R/CRE-luc/CHO-K1 cells
T1 construct: expressed in transfected cells; host or cells: CHO-K1, plasmids hGLP-1/pIRESneo3 and Cre-luc(Zeo)
Text: (§1) Evaluation of agonist activity against human GIPR, human GLP-1R and human glucagon R using rise in intracellular cAMP concentration as index
Four copies of the cAMP response sequence and the Zeocin resistance gene were introduced to pGL3(R2.2)-Basic Vector (Promega) to construct Cre-luc(Zeo) reporter plasmid.
The human GLP-1R gene having a sequence identical to the sequence of GenBank Accession No. NM_002062 was cloned into pIRESneo3 vector to prepare hGLP-1/pIRESneo3.
The Cre-luc(Zeo) obtained in (3) and the plasmid hGLP-1/pIRESneo3 obtained in (5) were introduced to CHO-K1 cells to obtain transformants. Next, a cell line induced to express luciferase, i.e., hGLP-1R/CRE-luc/CHO-K1 cells, were selected from the obtained transformants by the addition of GLP-1.
(§2) The hGIPR/CRE-LUC/CHO-K1 cells were inoculated at a cell density of 25 μL/well (5×10^4 cells/well) to a 384-well white plate (Corning), and cultured overnight in Ham F12 medium containing 10% fetal bovine serum, 100 U/mL penicillin and 100 μg/mL streptomycin in a CO2 incubator of 37° C. A medium containing a test compound was added at a concentration of 5 μL/well to the cells, and the resultant cells were incubated for 4 hours in a CO2 incubator of 37° C. to give the final concentration of 1 μM. PicaGene LT7.5 (Toyo Ink Co., Ltd.) was added thereto at a concentration of 30 μL/well, and the mixture was shaken with light shielded. After 30 minutes, the luciferase activity was measured using a plate reader Envision (PerkinElmer). The luciferase activity in the presence of 10 nM GIP was defined as 100%, and the luciferase activity from the addition of DMSO instead of the test compound was defined as 0%. The GIPR agonist activity was calculated with a rise in intracellular cAMP concentration as an index.
The GLP-1R agonist activity was assayed in the same way as above using the hGLP-1R/CRE-luc/CHO-K1 cells. The luciferase activity in the presence of 10 nM GLP-1 was defined as 100%, and the luciferase activity from the addition of DMSO instead of the test compound was defined as 0%. The GLP-1R agonist activity was calculated with a rise in intracellular cAMP concentration as an index.

human glucagon R = molecular target: T2, human glucagon R (Homo sapiens, UniProt P47871); assay: Agonist activity against human glucagon R, CRE-luciferase reporter assay in hGlucagonR/CRE-LUC/CHO-K1 cells
T2 construct: expressed in transfected cells; host or cells: CHO-K1 (CRE-LUC/CHO-K1), plasmid hGlucagonR/pMSRα-neo
Text: as §1
(§3) The luciferase reporter gene having an upstream cAMP response sequence was introduced to CHO-K1 cells to construct CRE-LUC/CHO-K1 cells.
The human glucagon R gene having a sequence identical to the sequence of GenBank Accession No. NM_000160 was cloned into pMSRα-neo vector to prepare hGlucagonR/pMSRα-neo.
The plasmid hGlucagonR/pMSRα-neo obtained in (7) was introduced to the CRE-LUC/CHO-K1 cells obtained in (2) to obtain transformants. Next, a cell line induced to express luciferase, i.e., hGlucagonR/CRE-LUC/CHO-K1 cells, were selected from the obtained transformants by the addition of glucagon.
as §2
The glucagon R agonist activity was assayed in the same way as above using the hGlucagonR/CRE-LUC/CHO-K1 cells. The luciferase activity in the presence of 10 nM glucagon was defined as 100%, and the luciferase activity from the addition of DMSO instead of the test compound was defined as 0%. The glucagon agonist activity was calculated with a rise in intracellular cAMP concentration as an index.

human GIPR = molecular target: T3, human GIPR (Homo sapiens, UniProt P48546); assay: Agonist activity against human GIPR, CRE-luciferase reporter assay (rise in intracellular cAMP) in hGIPR/CRE-LUC/CHO-K1 cells
T3 construct: expressed in transfected cells; host or cells: CHO-K1 (CRE-LUC/CHO-K1), plasmid hGIPR/pMSRα-neo
T3 sequence (P48546 22-466): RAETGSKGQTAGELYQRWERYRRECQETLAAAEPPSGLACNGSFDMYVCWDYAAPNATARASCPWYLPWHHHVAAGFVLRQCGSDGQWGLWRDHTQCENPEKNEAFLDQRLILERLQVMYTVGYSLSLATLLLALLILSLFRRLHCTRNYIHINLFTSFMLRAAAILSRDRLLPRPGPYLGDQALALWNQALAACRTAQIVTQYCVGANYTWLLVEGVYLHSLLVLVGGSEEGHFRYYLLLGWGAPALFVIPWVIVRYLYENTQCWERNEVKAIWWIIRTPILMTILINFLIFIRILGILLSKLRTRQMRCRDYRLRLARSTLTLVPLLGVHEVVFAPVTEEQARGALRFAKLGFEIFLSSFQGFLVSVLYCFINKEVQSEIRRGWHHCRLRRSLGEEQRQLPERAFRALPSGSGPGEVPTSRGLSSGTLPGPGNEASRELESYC
Text: as §1
The human GIPR gene having a sequence identical to the sequence of GenBank Accession No. U39231 was cloned into pMSRα-neo vector to prepare hGIPR/pMSRα-neo.
as §3
The plasmid hGIPR/pMSRα-neo obtained in (1) was introduced to the CRE-LUC/CHO-K1 cells obtained in (2) to obtain transformants. Next, a cell line induced to express luciferase, i.e., hGIPR/CRE-LUC/CHO-K1 cells, were selected from the obtained transformants by the addition of GIP.
as §2

T1 sequence (P43220 24-463): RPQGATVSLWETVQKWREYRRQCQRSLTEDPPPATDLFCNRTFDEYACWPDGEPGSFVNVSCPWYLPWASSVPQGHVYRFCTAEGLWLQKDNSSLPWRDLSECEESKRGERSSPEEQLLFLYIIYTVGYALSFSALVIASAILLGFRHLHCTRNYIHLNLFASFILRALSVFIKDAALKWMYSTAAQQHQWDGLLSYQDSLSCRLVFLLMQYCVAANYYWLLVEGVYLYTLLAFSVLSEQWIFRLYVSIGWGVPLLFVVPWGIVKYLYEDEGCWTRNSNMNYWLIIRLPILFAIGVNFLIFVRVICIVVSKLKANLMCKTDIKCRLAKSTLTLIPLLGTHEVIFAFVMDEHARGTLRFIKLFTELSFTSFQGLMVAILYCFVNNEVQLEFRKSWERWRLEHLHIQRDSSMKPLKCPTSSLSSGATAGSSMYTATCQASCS
T2 sequence (P47871 26-477): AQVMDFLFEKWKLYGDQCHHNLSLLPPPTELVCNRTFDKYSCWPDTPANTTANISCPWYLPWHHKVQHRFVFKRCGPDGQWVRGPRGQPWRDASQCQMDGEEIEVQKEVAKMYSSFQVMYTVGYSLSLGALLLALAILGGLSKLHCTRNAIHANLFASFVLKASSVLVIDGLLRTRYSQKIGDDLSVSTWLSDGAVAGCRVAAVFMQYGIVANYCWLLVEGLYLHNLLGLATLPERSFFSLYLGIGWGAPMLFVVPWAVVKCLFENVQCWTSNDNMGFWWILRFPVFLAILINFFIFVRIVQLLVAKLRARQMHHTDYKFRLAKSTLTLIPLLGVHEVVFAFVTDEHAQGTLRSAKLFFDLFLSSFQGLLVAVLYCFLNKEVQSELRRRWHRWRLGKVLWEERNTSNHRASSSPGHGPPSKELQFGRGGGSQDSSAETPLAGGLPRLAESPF

Molecule `CC[C@H](C)[C@H](NC(=O)C(C)(C)NC(=O)[C@H](Cc1ccc(O)cc1)NC(=O)[C@H](CC(=O)O)NC(=O)[C@H](CO)NC(=O)[C@@H](NC(=O)[C@](C)(Cc1ccccc1)NC(=O)[C@@H](NC(=O)CNC(=O)[C@H](CCC(=O)O)NC(=O)C(C)(C)NC(=O)[C@@H](N)Cc1ccc(O)cc1)[C@@H](C)O)[C@@H](C)O)C(=O)N[C@@](C)(Cc1ccccc1)C(=O)N[C@@H](CC(C)C)C(=O)N[C@@H](CC(=O)O)C(=O)N[C@@H](CCCCN)C(=O)N[C@@H](CCC(N)=O)C(=O)N[C@@H](C)C(=O)N[C@@H](CCC(N)=O)C(=O)N[C@@H](C)C(=O)N[C@@H](CCC(=O)O)C(=O)N[C@@H](Cc1ccccc1)C(=O)N[C@H](C(=O)N[C@@H](CCCCN)C(=O)N[C@@H](Cc1c[nH]c2ccccc12)C(=O)N[C@@H](CC(C)C)C(=O)N[C@@H](CC(C)C)C(=O)N[C@@H](CCCCN)C(=O)NCC(=O)NCC(=O)N1CCC[C@H]1C(=O)N[C@@H](CO)C(=O)N[C@@H](CO)C(=O)NCC(=O)N[C@@H](C)C(=O)N1CCC[C@H]1C(=O)N1CCC[C@H]1C(=O)N1CCC[C@H]1C(=O)N[C@@H](CO)C(=O)N[C@@H](CCCCN)C(N)=O)C(C)C` [Example 13] (H-Y[Aib]EGT[αMeF]TSDY[Aib]I[αMeF]LDKQAQAEFVKWLLKGGPSSGAPPPSK-NH2) has an EC50 (human GLP-1R) of 0.011 nM, an EC50 (human glucagon R) greater than 1000 nM and an EC50 (human GIPR) of 0.0072 nM.
`CC[C@H](C)[C@H](NC(=O)C(C)(C)NC(=O)[C@H](Cc1ccc(O)cc1)NC(=O)[C@H](CC(=O)O)NC(=O)[C@H](CO)NC(=O)[C@@H](NC(=O)[C@](C)(Cc1ccccc1)NC(=O)[C@@H](NC(=O)CNC(=O)[C@H](CCC(=O)O)NC(=O)C(C)(C)NC(=O)[C@H](Cc1ccc(O)cc1)NC(=O)C1CC1)[C@@H](C)O)[C@@H](C)O)C(=O)NC(C)(C)C(=O)N[C@@H](CC(C)C)C(=O)N[C@@H](CC(=O)O)C(=O)N[C@@H](CCCCN)C(=O)N[C@@H](CCC(N)=O)C(=O)N[C@@H](C)C(=O)N[C@@H](CCC(N)=O)C(=O)N[C@@H](C)C(=O)N[C@@H](CCC(=O)O)C(=O)N[C@@H](Cc1ccccc1)C(=O)N[C@H](C(=O)N[C@@H](CCCCN)C(=O)N[C@@H](Cc1c[nH]c2ccccc12)C(=O)N[C@@H](CC(C)C)C(=O)N[C@@H](CC(C)C)C(=O)N[C@@H](CCCCN)C(=O)NCC(=O)NCC(=O)N1CCC[C@H]1C(=O)N[C@@H](CO)C(=O)N[C@@H](CO)C(=O)NCC(=O)N[C@@H](C)C(=O)N1CCC[C@H]1C(=O)N1CCC[C@H]1C(=O)N1CCC[C@H]1C(=O)N[C@@H](CO)C(=O)N[C@@H](CCCCN)C(N)=O)C(C)C` [Example 21] (Cyclopropanecarbonyl-Y[Aib]EGT[αMeF]TSDY[Aib]I[Aib]LDKQAQAEFVKWLLKGGPSSGAPPPSK-NH2) showed an EC50 (human GLP-1R; hGLP-1R/CRE-luc/CHO-K1 cells, 4 hours incubation, 10 nM GLP-1 = 100%, read-out: Agonist activity (EC50) hGLP-1R) of 0.055 nM, an EC50 (human glucagon R; hGlucagonR/CRE-LUC/CHO-K1 cells, 4 hours incubation, 10 nM glucagon = 100%, read-out: Agonist activity (EC50) hGCGR) greater than 1000 nM and an EC50 (human GIPR; hGIPR/CRE-LUC/CHO-K1 cells, 4 hours incubation, 10 nM GIP = 100%, read-out: Agonist activity (EC50) hGIPR) of 0.024 nM.
Molecule `CC[C@H](C)[C@H](NC(=O)C(C)(C)NC(=O)[C@H](Cc1ccc(O)cc1)NC(=O)[C@H](CC(=O)O)NC(=O)[C@H](CO)NC(=O)[C@@H](NC(=O)[C@](C)(Cc1ccccc1)NC(=O)[C@@H](NC(=O)CNC(=O)[C@H](CCC(=O)O)NC(=O)C(C)(C)NC(=O)[C@@H](N)Cc1ccc(O)cc1)[C@@H](C)O)[C@@H](C)O)C(=O)N[C@@](C)(Cc1ccc(O)cc1)C(=O)N[C@@H](CC(C)C)C(=O)N[C@@H](CC(=O)O)C(=O)N[C@@H](CCCCN)C(=O)N[C@@H](CCC(N)=O)C(=O)N[C@@H](C)C(=O)N[C@@H](CCC(N)=O)C(=O)N[C@@H](C)C(=O)N[C@@H](CCC(=O)O)C(=O)N[C@@H](Cc1ccccc1)C(=O)N[C@H](C(=O)N[C@@H](CCCCN)C(=O)N[C@@H](Cc1c[nH]c2ccccc12)C(=O)N[C@@H](CC(C)C)C(=O)N[C@@H](CC(C)C)C(=O)N[C@@H](CCCCN)C(=O)NCC(=O)NCC(=O)N1CCC[C@H]1C(=O)N[C@@H](CO)C(=O)N[C@@H](CO)C(=O)NCC(=O)N[C@@H](C)C(=O)N1CCC[C@H]1C(=O)N1CCC[C@H]1C(=O)N1CCC[C@H]1C(=O)N[C@@H](CO)C(=O)N[C@@H](CCCCN)C(N)=O)C(C)C` [Example 17] (H-Y[Aib]EGT[αMeF]TSDY[Aib]I[αMeY]LDKQAQAEFVKWLLKGGPSSGAPPPSK-NH2) has an EC50 (human GLP-1R) of 0.018 nM, an EC50 (human glucagon R) greater than 1000 nM and an EC50 (human GIPR) of 0.014 nM.
`CC[C@H](C)[C@H](NC(=O)[C@H](C)NC(=O)[C@H](Cc1ccc(O)cc1)NC(=O)[C@H](CC(=O)O)NC(=O)[C@H](CO)NC(=O)[C@@H](NC(=O)[C@](C)(Cc1ccccc1)NC(=O)[C@@H](NC(=O)CNC(=O)[C@H](CCC(=O)O)NC(=O)C(C)(C)NC(=O)[C@@H](N)Cc1ccc(O)cc1)[C@@H](C)O)[C@@H](C)O)C(=O)NC(C)(C)C(=O)N[C@@H](CC(C)C)C(=O)N[C@@H](CC(=O)O)C(=O)N[C@@H](CCCCN)C(=O)N[C@@H](CCC(N)=O)C(=O)N[C@@H](C)C(=O)N[C@@H](CCC(N)=O)C(=O)N[C@@H](CO)C(=O)N[C@@H](CCC(=O)O)C(=O)N[C@@H](Cc1ccccc1)C(=O)N[C@H](C(=O)N[C@@H](CCCCN)C(=O)N[C@@H](Cc1c[nH]c2ccccc12)C(=O)N[C@@H](CC(C)C)C(=O)N[C@@H](CC(C)C)C(=O)N[C@@H](CCCCN)C(=O)NCC(=O)NCC(=O)N1CCC[C@H]1C(=O)N[C@@H](CO)C(=O)N[C@@H](CO)C(=O)NCC(=O)N[C@@H](C)C(=O)N1CCC[C@H]1C(=O)N1CCC[C@H]1C(=O)N1CCC[C@H]1C(=O)N[C@@H](CO)C(=O)N[C@@H](CCCCN)C(N)=O)C(C)C` [Example 3] (H-Y[Aib]EGT[αMeF]TSDYAI[Aib]LDKQAQSEFVKWLLKGGPSSGAPPPSK-NH2) showed an EC50 (human GLP-1R) of 0.013 nM, an EC50 (human glucagon R) greater than 1000 nM and an EC50 (human GIPR) of 0.0071 nM.
